# Experimental data from ChEMBL document CHEMBL5576074, “[1,2,4]Triazolo[1,5-a]pyrimidine derivatives: Structure-activity relationship study leading to highly selective ENPP1 inhibitors” (Bioorg Med Chem Lett, 2024).
# Columns and labels:
# [1] = target: T1, Ectonucleotide pyrophosphatase/phosphodiesterase family member 1 (Homo sapiens, UniProt P22413); assay: Inhibition of ENPP1 (unknown origin)
# T1 sequence (P22413 whole entry): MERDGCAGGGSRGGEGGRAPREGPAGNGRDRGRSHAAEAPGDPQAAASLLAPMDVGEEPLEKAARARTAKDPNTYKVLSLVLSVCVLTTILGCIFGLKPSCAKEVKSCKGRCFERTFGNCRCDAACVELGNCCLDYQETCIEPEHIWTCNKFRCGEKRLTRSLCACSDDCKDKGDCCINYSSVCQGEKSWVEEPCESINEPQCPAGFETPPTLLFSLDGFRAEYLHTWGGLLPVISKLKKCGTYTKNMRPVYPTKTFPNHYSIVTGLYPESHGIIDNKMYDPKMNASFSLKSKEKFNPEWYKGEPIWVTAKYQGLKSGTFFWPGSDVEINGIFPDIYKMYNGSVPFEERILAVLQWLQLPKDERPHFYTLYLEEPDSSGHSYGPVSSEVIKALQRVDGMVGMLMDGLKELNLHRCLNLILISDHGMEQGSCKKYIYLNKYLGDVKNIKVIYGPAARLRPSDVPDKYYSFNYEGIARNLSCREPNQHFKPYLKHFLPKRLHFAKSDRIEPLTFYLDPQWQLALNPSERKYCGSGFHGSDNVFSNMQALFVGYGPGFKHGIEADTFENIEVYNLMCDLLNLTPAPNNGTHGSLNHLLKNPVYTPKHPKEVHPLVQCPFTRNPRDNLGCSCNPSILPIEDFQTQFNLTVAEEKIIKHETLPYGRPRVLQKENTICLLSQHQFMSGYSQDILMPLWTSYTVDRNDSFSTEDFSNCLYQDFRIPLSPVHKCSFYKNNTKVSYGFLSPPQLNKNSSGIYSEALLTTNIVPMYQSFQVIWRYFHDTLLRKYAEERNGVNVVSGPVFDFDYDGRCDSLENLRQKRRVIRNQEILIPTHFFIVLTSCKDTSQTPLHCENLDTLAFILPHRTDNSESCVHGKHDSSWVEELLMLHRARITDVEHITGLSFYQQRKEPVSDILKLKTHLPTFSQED
# [2] = target: T2, Ectonucleotide pyrophosphatase/phosphodiesterase family member 3 (Homo sapiens, UniProt O14638); assay: Inhibition of ENPP3 (unknown origin)
# T2 sequence (O14638 whole entry): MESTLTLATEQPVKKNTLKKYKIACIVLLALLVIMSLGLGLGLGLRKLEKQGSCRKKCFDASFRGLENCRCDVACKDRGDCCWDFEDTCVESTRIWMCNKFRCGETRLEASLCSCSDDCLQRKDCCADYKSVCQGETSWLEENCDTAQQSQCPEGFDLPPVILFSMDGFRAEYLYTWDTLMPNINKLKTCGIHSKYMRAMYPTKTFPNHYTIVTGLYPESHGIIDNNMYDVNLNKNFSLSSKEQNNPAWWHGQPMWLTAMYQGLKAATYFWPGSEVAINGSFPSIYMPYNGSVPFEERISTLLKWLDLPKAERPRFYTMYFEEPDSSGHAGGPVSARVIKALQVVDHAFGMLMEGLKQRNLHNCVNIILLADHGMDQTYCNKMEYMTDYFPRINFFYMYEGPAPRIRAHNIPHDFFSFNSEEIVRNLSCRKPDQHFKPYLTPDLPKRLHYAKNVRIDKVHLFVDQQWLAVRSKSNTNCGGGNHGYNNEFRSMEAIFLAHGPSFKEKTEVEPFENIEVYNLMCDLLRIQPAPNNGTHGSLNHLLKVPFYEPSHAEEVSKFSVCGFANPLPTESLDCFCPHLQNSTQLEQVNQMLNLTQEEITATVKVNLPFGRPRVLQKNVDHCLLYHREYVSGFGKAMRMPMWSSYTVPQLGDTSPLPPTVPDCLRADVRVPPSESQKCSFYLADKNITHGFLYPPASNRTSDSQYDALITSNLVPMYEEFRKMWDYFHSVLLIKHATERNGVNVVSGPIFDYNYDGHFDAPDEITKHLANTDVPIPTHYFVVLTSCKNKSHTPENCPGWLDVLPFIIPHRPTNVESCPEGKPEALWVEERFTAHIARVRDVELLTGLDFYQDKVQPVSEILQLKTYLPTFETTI
# Autotaxin [3] = target: T3, Autotaxin (Homo sapiens, UniProt Q13822); assay: Inhibition of ENPP2 (unknown origin)
# [4] = target: T4, Glycerophosphocholine cholinephosphodiesterase ENPP6 (Homo sapiens, UniProt Q6UWR7); assay: Inhibition of ENPP6 (unknown origin)
# T4 sequence (Q6UWR7 whole entry): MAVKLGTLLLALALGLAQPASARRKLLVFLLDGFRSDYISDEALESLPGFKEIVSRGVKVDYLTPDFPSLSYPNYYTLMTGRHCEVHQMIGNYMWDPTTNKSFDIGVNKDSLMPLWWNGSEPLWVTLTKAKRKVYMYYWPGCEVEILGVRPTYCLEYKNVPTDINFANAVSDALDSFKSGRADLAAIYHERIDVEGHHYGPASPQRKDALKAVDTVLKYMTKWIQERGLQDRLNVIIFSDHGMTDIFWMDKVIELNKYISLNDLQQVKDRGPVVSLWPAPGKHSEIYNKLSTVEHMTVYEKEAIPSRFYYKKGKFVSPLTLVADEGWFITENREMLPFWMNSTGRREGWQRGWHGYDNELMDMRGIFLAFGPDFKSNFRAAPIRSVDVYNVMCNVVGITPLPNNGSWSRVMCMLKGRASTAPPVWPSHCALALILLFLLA
# [5] = target: T5, Ectonucleotide pyrophosphatase/phosphodiesterase family member 3 (Homo sapiens) (UniProt O14638); assay: Inhibition of ENPP3 (unknown origin) at 50 uM relative to control
# T5 sequence (whole entry): T2 sequence (O14638 whole entry)
# Autotaxin [6] = target: T3, Autotaxin; assay: Inhibition of ENPP2 (unknown origin) at 50 uM relative to control
# [7] = target: T6, Glycerophosphocholine cholinephosphodiesterase ENPP6 (Homo sapiens) (UniProt Q6UWR7); assay: Inhibition of ENPP6 (unknown origin) at 50 uM relative to control
# T6 sequence (whole entry): T4 sequence (Q6UWR7 whole entry)
# [8] = target: T1, Ectonucleotide pyrophosphatase/phosphodiesterase family member 1; assay: Inhibition of ENPP1 (unknown origin) assessed as reduction in ATP hydrolysis by AMP-Glo assay
# [9] = target: T1, Ectonucleotide pyrophosphatase/phosphodiesterase family member 1; assay: Inhibition of ENPP1 (unknown origin) assessed as reduction in 2'3'-cGAMP hydrolysis by AMP-Glo assay
# [10] = target: T2, Ectonucleotide pyrophosphatase/phosphodiesterase family member 3; assay: Inhibition of ENPP3 (unknown origin) assessed as reduction in ATP hydrolysis by AMP-Glo assay
# [11] = target: T2, Ectonucleotide pyrophosphatase/phosphodiesterase family member 3; assay: Inhibition of ENPP3 (unknown origin) assessed as reduction in 2'3'-cGAMP hydrolysis by AMP-Glo assay
# [12] = target: T5, Ectonucleotide pyrophosphatase/phosphodiesterase family member 3 (Homo sapiens); assay: Inhibition of ENPP3 (unknown origin) assessed as reduction in ATP hydrolysis at 50 uM by AMP-Glo assay relative to control
# [13] = target: T5, Ectonucleotide pyrophosphatase/phosphodiesterase family member 3 (Homo sapiens); assay: Inhibition of ENPP3 (unknown origin) assessed as reduction in 2'3'-cGAMP hydrolysis at 50 uM by AMP-Glo assay relative to control
# THP1-Dual = assay: Cytotoxicity against human THP1-Dual cells upto 50 uM; assay type: toxicity, cell-based
# [14] = Cytotoxicity against human HepG2-Dual cells upto 50 uM; assay type: toxicity, cell-based; settings: hepg2, 50 µM
# [15] = target: T5, Ectonucleotide pyrophosphatase/phosphodiesterase family member 3 (Homo sapiens); assay: Inhibition of ENPP3 (unknown origin) at 10 uM relative to control
Compound,IC50 [1] [µM],IC50 [2] [µM],IC50 (Autotaxin [3]) [µM],IC50 [4] [µM],inhibition [5] [%],inhibition (Autotaxin [6]) [%],inhibition [7] [%],IC50 [8] [µM],IC50 [9] [µM],IC50 [10] [µM],IC50 [11] [µM],inhibition [12] [%],inhibition [13] [%],Activity (THP1-Dual),Activity [14],inhibition [15] [%]
Cc1nc2ncnn2c(N(C)C)c1Cc1cccc(O)c1,0.42,> 50,> 50,> 50,24,31,< 1,1.8,1.4,> 50,> 50,< 1,< 1,Non-Toxic,Non-Toxic,
Cc1nc2ncnn2c(NCc2ccc(C(=O)O)cc2)c1Cc1cccc(N)c1,1.1,> 50,> 50,> 50,33,8.9,< 1,8.6,9,> 50,> 50,1.6,< 1,Non-Toxic,Non-Toxic,
Cc1nc2ncnn2c(N2CCCCC2)c1Cc1ccccc1,,,,,,,,,,,,,,,,1
Cc1nc2ncnn2c(N(C)C)c1Cc1cccc(N)c1,0.26,> 50,> 50,> 50,24,11,< 1,0.85,0.82,> 50,> 50,4.2,2.2,Non-Toxic,Non-Toxic,
Cc1nc2ncnn2c(N2CCCCCC2)c1Cc1ccccc1,,,,,,,,,,,,,,,,5
Cc1nc2ncnn2c(N(C)C)c1Cc1ccccc1,0.74,> 50,> 50,> 50,6.3,31,< 1,,,> 50,> 50,7.5,< 1,,,19
Cc1nc2ncnn2c(N2CCC(C)CC2)c1Cc1ccccc1,,,,,,,,,,,,,,,,2
CCc1nc2ncnn2c(N(CC)Cc2ccccc2)c1Cc1ccccc1,,,,,,,,,,,,,,,,2
Cc1nc2ncnn2c(N(C)C)c1CCc1ccccc1,23,> 50,> 50,> 50,3.6,< 1,< 1,,,,,,,,,
Cc1nc2ncnn2c(O)c1Cc1ccccc1,> 30,> 50,> 50,> 50,2.4,< 1,< 1,,,,,,,,,
COc1ccc(Cc2c(C)nc3ncnn3c2N(C)C)cc1OC,1.3,> 50,> 50,> 50,4.6,6.8,< 1,,,,,,,,,
Cc1nc2ncnn2c(N2CCCC2)c1Cc1ccccc1,,,,,,,,,,,,,,,,16
Cc1nc2ncnn2c(NCCO)c1Cc1ccccc1,> 30,> 50,> 50,> 50,4.3,< 1,< 1,,,,,,,,,
Cc1nc2ncnn2c(N(C)C)c1Cc1cccc(-c2ccccc2)c1,21,> 50,> 50,> 50,5.9,6.1,< 1,,,,,,,,,
Cc1nc2ncnn2c(N(C)C)c1Cc1cccc(Cl)c1,1.1,> 50,> 50,> 50,8.7,19,1.3,,,,,,,,,
Cc1nc2ncnn2c(N(C)C)c1Cc1ccc([N+](=O)[O-])cc1,21,> 50,> 50,> 50,2.7,< 1,< 1,,,,,,,,,
